Experiments:
[1] = Comparative pharmacokinetics study in rats; format: in vivo, SD male rats; conditions: rat; for clearance / half-life / bioavailability: male, Sprague-Dawley (SD), plasma; for clearance / half-life / Area Under a Curve (0-inf): intravenous injection 2 mg/kg; for bioavailability: oral 10 mg/kg vs intravenous 2 mg/kg; for Area Under a Curve (0-inf/0-last) / Peak time: oral 10 mg/kg; for Oral plasma system exposure (AUC0-inf) as multiple of the reference compound / Plasma clearance as percent of that of the reference compound: relative to Cenicriviroc
Protocol: Experimental Example 2: Comparative Pharmacokinetics Study in Rats
SD male rats were used as the test animals in this study. The drug concentrations in plasma of the rats by intravenous or oral administration of test compounds WX017, WX047, WX079, WX088 and reference compound at different time points were quantitatively determined by LC/MS/MS, which were used to evaluate the pharmacokinetic profile of the two test drugs in rats.
A clear solution of the test compound was injected into SD rats via the tail vein (overnight fasting, 7-10 weeks old), and the test compound was orally administered to the SD rats (overnight fasting, 7-10 weeks old). Approximately 200 μL of blood was collected from the jugular vein or tail vein of the animals 0.0833, 0.25, 0.5, 1, 2, 4, 6, 8 and 24 hours after administration, and was placed in an anticoagulant tube containing EDTA-K2. The plasma was collected by centrifugation at 3000 g for 15 minutes at 4° C. The plasma concentration was determined by LC-MS/MS. The pharmacokinetic parameters were calculated by the non-compartment model linear logarithmic trapezoidal method using WinNonlin™ Version 6.3 (Pharsight, Mountain View, Calif.) pharmacokinetic software.

[2] = Comparative pharmacokinetics study in cynomolgus monkeys; format: in vivo; conditions: cynomolgus monkey
Text: Experimental Example 3: Comparative Pharmacokinetics Study in Cynomolgus Monkeys
Male cynomolgus monkeys were used as the test animals in this study. The drug concentrations in plasma of the cynomolgus monkeys by intravenous or oral administration of test compound WX047 and reference compound at different time points were quantitatively determined by LC/MS/MS, which were used to evaluate the pharmacokinetic profile of the two test drugs in cynomolgus monkeys.
A clear solution of the test compound was injected into cynomolgus monkeys via t the cephalic or saphenous vein (overnight fasting, 2.5-7 kg), and the test compound was intragastrically administered to the cynomolgus monkeys (overnight fasting, 7-10 weeks old). Approximately 400 μL of blood was collected from the peripheral vein of the animals 0.0833, 0.25, 0.5, 1, 2, 4, 6, 8, 12 and 24 hours after administration, and transferred into an commercial centrifuge tube containing EDTA-K2*2H2O anticoagulation. The plasma was collected by centrifugation at 3000 g for 10 minutes at 4° C. The plasma concentration was determined by LC-MS/MS. The pharmacokinetic parameters were calculated by the non-compartment model linear logarithmic trapezoidal method using WinNonlin™ Version 6.3 (Pharsight, Mountain View, Calif.) pharmacokinetic software.

[3] = molecular target: T1, CYP1A2 (Homo sapiens, UniProt P05177); assay: Inhibition of human liver microsomal CYP1A2 (phenacetin probe); format: in vitro ADME; conditions: human liver microsomes
T1 construct: from tissue; host or cells: human liver microsomes
T1 sequence (P05177 1-516): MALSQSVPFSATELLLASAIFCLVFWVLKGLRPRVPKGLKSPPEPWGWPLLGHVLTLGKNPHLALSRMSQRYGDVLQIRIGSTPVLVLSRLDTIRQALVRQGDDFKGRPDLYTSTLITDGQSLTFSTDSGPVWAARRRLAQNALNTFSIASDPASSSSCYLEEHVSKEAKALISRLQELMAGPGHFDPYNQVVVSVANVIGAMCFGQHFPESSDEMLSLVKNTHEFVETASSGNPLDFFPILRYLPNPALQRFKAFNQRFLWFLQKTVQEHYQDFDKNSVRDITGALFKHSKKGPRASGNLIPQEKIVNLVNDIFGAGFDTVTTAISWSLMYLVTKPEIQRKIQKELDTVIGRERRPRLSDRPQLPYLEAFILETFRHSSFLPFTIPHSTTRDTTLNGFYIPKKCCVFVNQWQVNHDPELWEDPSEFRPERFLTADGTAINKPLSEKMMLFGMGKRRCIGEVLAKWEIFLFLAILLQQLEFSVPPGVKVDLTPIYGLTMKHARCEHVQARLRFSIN
Protocol: (§1) Experimental Example 4 Inhibition Effect on the Activity of Human Liver Microsomal Cytochrome P450 Isoezymes (CYP1A2, CYP2C9, CYP2C19, CYP2D6 and CYP3A4)
(§2) A total of 5 specific probe substrates for CYP's five isozymes, Phenacetin (CYP1A2), Diclofenac (CYP2C9), […] (S)-Mephenytoin, CYP2C19), Dextromethorphan (CYP2D6) and Midazolam (CYP3A4) were incubated with human liver microsomes and test compounds, respectively, and reduced nicotinamide adenine dinucleotide phosphate (NADPH) was added to initiate the reaction. After the reaction, the sample was processed and liquid chromatography tandem mass spectrometry (LC-MS/MS) was used to quantitatively detect the […] metabolites produced by the specific substrate, Acetaminophen and 4′-hydroxydiclofenac, 4′-hydroxymephenytoin, Dextrorphan and 1′-hydroxymidazolam, in order to calculate the corresponding half maximal inhibitory concentration (IC50).

[4] = molecular target: T2, CYP2C9 (Homo sapiens, UniProt P11712); assay: Inhibition of human liver microsomal CYP2C9 (diclofenac probe); format: in vitro ADME; conditions: human liver microsomes
T2 construct: from tissue; host or cells: human liver microsomes
Protocol: as §1, §2

[5] = molecular target: T3, CYP2C19 (Homo sapiens, UniProt P33261); assay: Inhibition of human liver microsomal CYP2C19 ((S)-mephenytoin probe); format: in vitro ADME; conditions: human liver microsomes
T3 construct: from tissue; host or cells: human liver microsomes
Protocol: as §1, §2

[6] = molecular target: T4, CYP2D6 (Homo sapiens, UniProt P10635); assay: Inhibition of human liver microsomal CYP2D6 (dextromethorphan probe); format: in vitro ADME; conditions: human liver microsomes
T4 construct: from tissue; host or cells: human liver microsomes
Protocol: as §1, §2

[7] = molecular target: T5, CYP3A4 (Homo sapiens, UniProt P08684); assay: Inhibition of human liver microsomal CYP3A4 (midazolam probe); format: in vitro ADME; conditions: human liver microsomes
T5 construct: from tissue; host or cells: human liver microsomes
Protocol: as §1, §2

[8] = molecular target: T6, CCR2 (Homo sapiens, UniProt P41597); assay: CCR2 in vitro test: intracellular calcium signal detected by FLIPR; format: cell-based; conditions: HEK293 cells expressing CCR2, agonist MCP-1 at EC80, calcium signal
T6 construct: expressed in transfected cells; host or cells: HEK293, clone C7, passage P6
Protocol: (§3) Experimental Example 1: CCR2/CCR5 In Vitro Test
(§4) The intracellular calcium signal was detected by FLIPR, and the IC50 value of the compound was used as an index to evaluate the inhibitory effect of the compound on CCR2 and CCR5 receptors.
(§5) 1. Cell line: The cells were inoculated and incubated in a 5% CO2 incubator at 37° C. overnight.
(§6) CCR2/CCR5 density: 1 M (20 k/well)
(§7) 2. Reagents: Fluo-4 Direct, (Invitrogen, Cat #F10471)
(§8) The compound was dissolved in DMSO to prepare a 10 mM solution, and the compound solution was placed in a nitrogen box.
(§9) Agonist reference compounds:
(§10) Preparation of probenecid in FLIPR assay buffer: 1 mL of FLIPR assay buffer was added to […] of probenecid to prepare a 250 mM solution, which is prepared fresh daily.
(§11) 2× (8 μM) Fluo-4 Direct™ Loading Buffer (per 10 mL) • Thaw a bottle of Fluo-4 Direct™ crystal (F10471). • Add 10 mL of FLIPR assay buffer to the vial. • Add 0.2 mL of probenecid to each 10 mL of Fluo-Direct. The final concentration of the assay was 2.5 mM. • Rotate it and place for >5 minutes (in absence of light). • Prepare fresh daily.
(§12) MCP-1 was diluted in FLIPR assay buffer 1:2 into 10 points, starting at 0.5 uM (final 100 nM). RANTES was diluted in FLIPR assay buffer 1:3 into 10 points, starting at 0.5 uM (final 100 nM). 20 uL of serially diluted compound buffer was added to each well of the DRC plate according to the compound plate map.
(§13) Standard compound was diluted in DMSO 1:3 into 11 points, starting at 1 mM. Test compound was diluted in DMSO 1:3 into 11 points, starting at 2 mM. 250 nL of compound solution was transferred into a cell plate using Echo (Greiner #781946).
(§14) (c) Take the cell plate out of the incubator, and gently dispense 20 uL of 2× Fluo-4 Direct wash-free loading buffer into a 384-well cell culture plate using a pipette. The final cell plate is 40 μL in volume.
(§15) (d) Incubate for 50 minutes at 37° C. under 5% CO2, and for 10 minutes at room temperature.
(§16) (e) Take the cell plate out of the incubator, and place it in FLIPR. Place the composite plate and the tip box in FLIPR.
(§17) (f) For DRC plate: • 1) Run the program on FLIPRTETRA. • 2) Read the fluorescent signal. • 3) Transfer 10 μL of compound from the DRC plate to the cell plate. • 4) Read the fluorescent signal. • 5) Calculate the “maximum−minimum” from Read 90 to the maximum allowed. Use FLIPR to calculate the EC80 value of each cell line. • 6) Prepare 5×EC80 concentration of the agonist reference compound.
(§18) (g) For the composite plate (1-add): • 1) Run the program on FLIPRTETRA. • 2) Transfer 10 μl, of 5×EC80 concentration of the agonist reference compound from the composite plate to the cell plate. • 3) Read the fluorescent signal. • 4) Calculate the “maximum−minimum” from Read 90 to the maximum allowed.
(§19) (h) Analyze the data using Prism, and calculate the IC50 value of the compound.

[9] = molecular target: T7, CCR5 (Homo sapiens, UniProt P51681); assay: CCR5 in vitro test: intracellular calcium signal detected by FLIPR; format: cell-based; conditions: HEK293 cells expressing CCR5, agonist RANTES at EC80, calcium signal
T7 construct: expressed in transfected cells; host or cells: HEK293, clone C13, passage P4
Protocol: as §3, §4, §5, §6, §7, §8, §9, §10, §11, §12, §13, §14, §15, §16, §17, §18, §19

[10] = male, plasma, intravenous injection 1 mg/kg

T7 sequence (P51681 whole entry, species assumed): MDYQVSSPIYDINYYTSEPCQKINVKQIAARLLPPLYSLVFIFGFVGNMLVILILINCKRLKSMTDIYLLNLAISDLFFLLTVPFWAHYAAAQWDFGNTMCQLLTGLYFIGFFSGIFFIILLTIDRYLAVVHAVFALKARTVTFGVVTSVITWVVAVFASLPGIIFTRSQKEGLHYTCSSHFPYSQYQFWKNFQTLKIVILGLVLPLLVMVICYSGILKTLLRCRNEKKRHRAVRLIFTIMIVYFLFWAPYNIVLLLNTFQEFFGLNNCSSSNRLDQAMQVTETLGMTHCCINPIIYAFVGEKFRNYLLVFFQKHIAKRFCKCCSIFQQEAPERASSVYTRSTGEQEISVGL
T6 sequence (P41597 whole entry, species assumed): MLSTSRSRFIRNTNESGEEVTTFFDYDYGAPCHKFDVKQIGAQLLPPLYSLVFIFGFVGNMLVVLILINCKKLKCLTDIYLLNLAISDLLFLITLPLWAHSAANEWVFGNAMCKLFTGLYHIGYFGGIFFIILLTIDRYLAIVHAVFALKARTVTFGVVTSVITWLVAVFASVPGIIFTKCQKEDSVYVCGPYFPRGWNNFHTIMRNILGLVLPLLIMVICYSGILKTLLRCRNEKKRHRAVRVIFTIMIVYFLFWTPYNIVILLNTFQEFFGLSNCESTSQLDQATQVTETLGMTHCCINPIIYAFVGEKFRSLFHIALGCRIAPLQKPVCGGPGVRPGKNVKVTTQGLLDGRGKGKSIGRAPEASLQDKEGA
T5 sequence (P08684 whole entry): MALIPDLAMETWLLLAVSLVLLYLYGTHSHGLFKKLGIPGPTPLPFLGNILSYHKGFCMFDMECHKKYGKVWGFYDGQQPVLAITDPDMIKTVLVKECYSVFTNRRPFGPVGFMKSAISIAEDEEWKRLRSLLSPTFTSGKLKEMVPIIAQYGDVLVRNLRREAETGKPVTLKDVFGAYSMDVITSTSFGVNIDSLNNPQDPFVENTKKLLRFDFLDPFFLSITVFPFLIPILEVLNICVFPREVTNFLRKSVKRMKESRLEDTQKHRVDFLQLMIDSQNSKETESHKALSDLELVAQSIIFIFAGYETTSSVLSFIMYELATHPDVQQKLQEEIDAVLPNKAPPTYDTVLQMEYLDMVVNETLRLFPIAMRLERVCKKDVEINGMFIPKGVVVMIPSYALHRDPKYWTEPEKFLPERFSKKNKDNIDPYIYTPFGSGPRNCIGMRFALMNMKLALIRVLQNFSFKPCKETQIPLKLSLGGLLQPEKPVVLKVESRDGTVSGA
T2 sequence (P11712 whole entry): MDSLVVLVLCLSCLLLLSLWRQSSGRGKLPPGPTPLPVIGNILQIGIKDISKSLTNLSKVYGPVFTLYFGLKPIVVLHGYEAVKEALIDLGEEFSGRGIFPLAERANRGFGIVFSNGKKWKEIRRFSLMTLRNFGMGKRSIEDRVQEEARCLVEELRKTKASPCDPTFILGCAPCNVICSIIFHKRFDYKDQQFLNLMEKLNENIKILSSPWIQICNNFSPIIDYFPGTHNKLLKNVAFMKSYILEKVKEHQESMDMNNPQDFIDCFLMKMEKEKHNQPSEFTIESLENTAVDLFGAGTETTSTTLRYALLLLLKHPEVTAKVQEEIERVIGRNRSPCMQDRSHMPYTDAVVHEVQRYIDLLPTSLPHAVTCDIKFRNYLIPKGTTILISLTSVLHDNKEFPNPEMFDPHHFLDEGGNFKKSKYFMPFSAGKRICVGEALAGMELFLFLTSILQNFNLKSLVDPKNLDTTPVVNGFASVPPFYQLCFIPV
T3 sequence (P33261 whole entry): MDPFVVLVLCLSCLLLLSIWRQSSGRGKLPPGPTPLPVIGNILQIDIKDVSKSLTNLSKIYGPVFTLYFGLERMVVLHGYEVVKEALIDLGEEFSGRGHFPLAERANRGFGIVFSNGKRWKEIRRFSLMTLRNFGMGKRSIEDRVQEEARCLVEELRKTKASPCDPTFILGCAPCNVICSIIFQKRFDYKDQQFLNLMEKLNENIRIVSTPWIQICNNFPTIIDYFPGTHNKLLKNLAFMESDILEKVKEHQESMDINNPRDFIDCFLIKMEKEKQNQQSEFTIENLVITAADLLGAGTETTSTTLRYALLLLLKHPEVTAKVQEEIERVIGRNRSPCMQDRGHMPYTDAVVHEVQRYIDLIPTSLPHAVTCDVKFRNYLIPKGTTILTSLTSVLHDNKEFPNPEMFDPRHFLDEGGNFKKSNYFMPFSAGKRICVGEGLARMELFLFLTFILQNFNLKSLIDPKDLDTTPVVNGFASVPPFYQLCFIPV
T4 sequence (P10635 whole entry): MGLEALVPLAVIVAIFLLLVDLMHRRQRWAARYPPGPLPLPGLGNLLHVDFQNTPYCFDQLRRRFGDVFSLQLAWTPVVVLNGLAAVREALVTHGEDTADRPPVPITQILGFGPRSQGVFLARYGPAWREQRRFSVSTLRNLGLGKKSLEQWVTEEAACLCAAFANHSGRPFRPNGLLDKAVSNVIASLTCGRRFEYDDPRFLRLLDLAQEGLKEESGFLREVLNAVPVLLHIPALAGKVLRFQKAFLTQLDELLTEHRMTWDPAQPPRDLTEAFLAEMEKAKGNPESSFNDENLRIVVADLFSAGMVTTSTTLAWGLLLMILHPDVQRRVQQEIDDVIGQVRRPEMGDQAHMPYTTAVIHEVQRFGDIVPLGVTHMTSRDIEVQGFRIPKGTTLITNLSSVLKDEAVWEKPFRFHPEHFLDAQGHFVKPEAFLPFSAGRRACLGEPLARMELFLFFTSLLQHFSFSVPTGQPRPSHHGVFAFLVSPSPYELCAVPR

CCCCOCCOc1ccc(-c2ccc3c(c2)/C=C(/C(=O)Nc2ccc([S@@+]([O-])Cc4cncn4CCC)cc2)CCCN3CC(C)C)cc1 [(Cenicriviroc), Cenicriviroc, reference compound]
clearance [1]: 1.57 mL/min/kg | half-life [1]: 5.48 h | bioavailability [1]: 20.4% | Area Under a Curve (0-inf) [1]: 31.344 µM·h | Area Under a Curve (0-inf/0-last) [1]: 31.956 µM·h | Peak time [1]: 4.0 h | Area Under a Curve (0-inf) ([2]; intravenous injection 1 mg/kg): 2.766 µM·h | Area Under a Curve (0-inf/0-last) ([2]; oral 3 mg/kg): 0.424 µM·h | Peak time ([2]; oral 3 mg/kg): 2.0 h | clearance [2, 10]: 8.74 mL/min/kg | half-life [2, 10]: 5.37 h | bioavailability ([2]; male, plasma, oral 3 mg/kg vs intravenous 1 mg/kg): 5.11% | IC50 [3]: > 50000 nM | IC50 [4]: > 50000 nM | IC50 [5]: > 50000 nM | IC50 [6]: > 50000 nM | Inhibitory effect on CYP3A4 (conclusion in words) [7]: weak inhibitory effect | IC50 ([7]; probe midazolam): 5600 nM

CCCCOCCOc1ccc(-c2ccc(OC)c(/C=C/C(=O)Nc3ccc([S@@+]([O-])Cc4cncn4CCC)cc3)c2)cc1 [WX017]
IC50 [8]: 13 nM | IC50 [9]: 7.9 nM | clearance [1]: 0.4 mL/min/kg | half-life [1]: 3.69 h | bioavailability [1]: 48.9% | Area Under a Curve (0-inf) [1]: 135.732 µM·h | Area Under a Curve (0-inf/0-last) [1]: 331.778 µM·h | Peak time [1]: 1.5 h | Oral plasma system exposure (AUC0-inf) as multiple of the reference compound [1]: 10.4 times | Plasma clearance as percent of that of the reference compound [1]: 25%

CCCCOCCOc1ccc(-c2cc(F)c(OC)c(/C=C/C(=O)Nc3ccc([S@+]([O-])Cc4c(C)ncn4CC)cc3)c2)cc1 [WX088]
IC50 [8]: 3.5 nM | IC50 [9]: 4.3 nM | clearance [1]: 0.328 mL/min/kg | half-life [1]: 6.63 h | bioavailability [1]: 15.7% | Area Under a Curve (0-inf) [1]: 150.423 µM·h | Area Under a Curve (0-inf/0-last) [1]: 122.101 µM·h | Peak time [1]: 3.0 h | Oral plasma system exposure (AUC0-inf) as multiple of the reference compound [1]: 3.8 times | Plasma clearance as percent of that of the reference compound [1]: 21%

CCCCOCCOc1ccc(-c2ccc(C(F)(F)F)c(/C=C/C(=O)Nc3ccc([S@+]([O-])Cc4c(C)ncn4CC)cc3)c2)cc1 [WX071]
IC50 [8]: 4.5 nM | IC50 [9]: 3.4 nM

CCCCOCCOc1ccc(-c2cc(C)cc(/C=C/C(=O)Nc3ccc([S@+]([O-])Cc4c(C)ncn4CC)cc3)c2)cc1 [WX092]
IC50 [8]: 3.9 nM | IC50 [9]: 10.1 nM

CCCCOCCOc1ccc(-c2ccc(OC)c(/C=C/C(=O)Nc3ccc([S+]([O-])Cc4cnccc4C)cc3)c2)cc1 (stereo not drawn) [WX056]
IC50 [8]: 71.1 nM | IC50 [9]: 16.6 nM

CCCCOc1ccc(-c2ccc(Cl)c(/C=C/C(=O)Nc3ccc([S+]([O-])Cc4cncn4CC)cc3)c2)cc1 (stereo not drawn) [WX020]
IC50 [8]: 68.1 nM | IC50 [9]: 8.2 nM

CCCCOCCOc1ccc(-c2ccc(C)c(/C=C/C(=O)Nc3ccc([S+]([O-])Cc4cncn4CC)cc3)c2)cc1 (stereo not drawn) [WX041]
IC50 [8]: 22.5 nM | IC50 [9]: 21.4 nM

CCCOc1ccc(-c2ccc(OC(F)F)c(/C=C/C(=O)Nc3ccc([S@@+]([O-])Cc4cncn4CCC)cc3)c2)cc1 [WX052]
IC50 [8]: 80.8 nM | IC50 [9]: 11.9 nM

CCCn1cncc1C[S@+]([O-])c1ccc(NC(=O)/C=C/c2cccc(-c3ccc(OC(C)C)cc3)c2)cc1 [WX007]
IC50 [8]: 65.2 nM | IC50 [9]: 6.4 nM

CCCOc1ccc(-c2ccc(OC(F)F)c(/C=C/C(=O)Nc3ccc([S@@+]([O-])Cc4c(C)ncn4CC)cc3)c2)cc1 [WX062]
IC50 [8]: 84.5 nM | IC50 [9]: 20.5 nM
